Results: ChEMBL document CHEMBL1153330, “Biochemical basis for differences in metabolism-dependent genotoxicity by two diazinylpiperazine-based 5-HT2C receptor agonists” (Bioorg Med Chem Lett, 2009)

Key:
Cytochrome P450 3A4 = Cytochrome P450 3A4 (Homo sapiens, UniProt P08684); assay: Inhibition of CYP3A4 in human liver microsomes; format: ADME, Microsome
Salmonella typhimurium [1] = assay: Toxic mutagenic effect in Salmonella Typhimurium TA1537 assessed as increase in reverse mutants at 0.63 mg/plate segment in presence of liver S9 fraction and NADPH by reverse mutation assay relative to untreated control; format: toxicity, organism-based; details: salmonella enterica subsp. enterica serovar typhimurium
[2] = Metabolic stability in human liver microsomes in presence of CYP3A4 inhibitor ketoconazole; format: ADME, Microsome; details: with ketoconazole (CYP3A4 inhibitor), concentration not stated
[3] = Metabolic stability in human liver microsomes; format: ADME, Microsome
Salmonella typhimurium [4] = assay: Toxic mutagenic effect in Salmonella Typhimurium TA100 assessed as increase in reverse mutants at 0.63 mg/plate segment in presence of liver S9 fraction and NADPH by reverse mutation assay relative to untreated control; format: toxicity, organism-based; details: salmonella enterica subsp. enterica serovar typhimurium
[5] = Metabolic stability in aroclor 1254-induced rat liver S9 fraction at 1 uM in presence of NADPH; format: ADME, subcellular
[6] = Metabolic stability in human liver microsomes in presence of CYP1A2 inhibitor furafylline; format: ADME, Microsome; details: with furafylline (CYP1A2 inhibitor), concentration not stated
Salmonella typhimurium [7] = assay: Toxic mutagenic effect in Salmonella Typhimurium TA100 assessed as increase in reverse mutants at 5 mg/plate segment after 72 hrs at 37 degC by reverse mutation assay relative to untreated control; format: toxicity, organism-based; details: salmonella enterica subsp. enterica serovar typhimurium
Salmonella typhimurium [8] = assay: Toxic mutagenic effect in Salmonella Typhimurium TA1535 assessed as increase in reverse mutants at 5 mg/plate segment after 72 hrs at 37 degC by reverse mutation assay relative to untreated control; format: toxicity, organism-based; details: salmonella enterica subsp. enterica serovar typhimurium
Salmonella typhimurium [9] = assay: Toxic mutagenic effect in Salmonella Typhimurium TA1537 assessed as increase in reverse mutants at 5 mg/plate segment after 72 hrs at 37 degC by reverse mutation assay relative to untreated control; format: toxicity, organism-based; details: salmonella enterica subsp. enterica serovar typhimurium
Salmonella typhimurium [10] = assay: Toxic mutagenic effect in Salmonella Typhimurium TA1535 assessed as increase in reverse mutants at 5 mg/plate segment after 72 hrs at 37 degC in presence of aroclor 1254-induced rat liver S9 fraction by reverse mutation assay relative to untreated control; format: toxicity, organism-based; details: salmonella enterica subsp. enterica serovar typhimurium, s9, 72 h
Cytochrome P450 1A2 = target: T1, Cytochrome P450 1A2 (Homo sapiens, UniProt P05177); assay: Inhibition of CYP1A2 in human liver microsomes; format: ADME, Microsome
T1 sequence (P05177 whole entry): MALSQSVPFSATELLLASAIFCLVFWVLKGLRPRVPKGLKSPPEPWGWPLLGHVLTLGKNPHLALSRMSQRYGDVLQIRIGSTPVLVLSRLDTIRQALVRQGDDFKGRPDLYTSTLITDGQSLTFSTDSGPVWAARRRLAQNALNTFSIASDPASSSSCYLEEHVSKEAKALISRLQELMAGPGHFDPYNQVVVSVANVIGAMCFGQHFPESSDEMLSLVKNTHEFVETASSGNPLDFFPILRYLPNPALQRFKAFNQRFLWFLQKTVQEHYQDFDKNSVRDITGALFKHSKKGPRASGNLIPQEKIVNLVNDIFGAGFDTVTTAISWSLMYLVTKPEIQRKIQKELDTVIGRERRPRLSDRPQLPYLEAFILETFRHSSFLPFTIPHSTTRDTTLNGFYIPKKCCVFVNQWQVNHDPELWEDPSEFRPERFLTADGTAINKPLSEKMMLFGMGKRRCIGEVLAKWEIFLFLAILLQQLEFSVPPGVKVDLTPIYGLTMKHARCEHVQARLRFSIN

Salmonella typhimurium [11] = assay: Toxic mutagenic effect in Salmonella Typhimurium TA98 assessed as increase in reverse mutants at 5 mg/plate segment after 72 hrs at 37 degC in presence of aroclor 1254-induced rat liver S9 fraction by reverse mutation assay relative to untreated control; format: toxicity, organism-based; details: salmonella enterica subsp. enterica serovar typhimurium, s9, 72 h
Salmonella typhimurium [12] = assay: Toxic mutagenic effect in Salmonella Typhimurium TA98 assessed as increase in reverse mutants at 5 mg/plate segment after 72 hrs at 37 degC by reverse mutation assay relative to untreated control; format: toxicity, organism-based; details: salmonella enterica subsp. enterica serovar typhimurium
Salmonella typhimurium [13] = assay: Toxic mutagenic effect in Salmonella Typhimurium TA1537 assessed as increase in reverse mutants at 5 mg/plate segment after 72 hrs at 37 degC in presence of aroclor 1254-induced rat liver S9 fraction by reverse mutation assay relative to untreated control; format: toxicity, organism-based; details: salmonella enterica subsp. enterica serovar typhimurium, s9, 72 h

Sequence of Cytochrome P450 3A4 (P08684 whole entry): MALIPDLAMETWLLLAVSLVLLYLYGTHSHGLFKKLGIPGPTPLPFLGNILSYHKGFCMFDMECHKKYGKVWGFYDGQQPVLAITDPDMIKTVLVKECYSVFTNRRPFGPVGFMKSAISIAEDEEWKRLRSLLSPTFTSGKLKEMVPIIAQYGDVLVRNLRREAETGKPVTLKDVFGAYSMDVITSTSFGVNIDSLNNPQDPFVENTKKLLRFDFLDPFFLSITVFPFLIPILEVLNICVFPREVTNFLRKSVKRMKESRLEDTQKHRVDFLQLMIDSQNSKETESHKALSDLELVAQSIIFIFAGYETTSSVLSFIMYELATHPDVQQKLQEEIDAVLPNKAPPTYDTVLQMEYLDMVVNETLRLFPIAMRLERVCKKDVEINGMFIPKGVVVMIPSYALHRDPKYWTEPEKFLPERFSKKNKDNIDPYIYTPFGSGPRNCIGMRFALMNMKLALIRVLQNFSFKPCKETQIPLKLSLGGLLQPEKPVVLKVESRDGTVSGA

| SMILES | IC50 (Cytochrome P450 3A4) [µM] | fold change (FC) (Salmonella typhimurium [1]) | half-life [2] [min] | half-life [3] [min] | fold change (FC) (Salmonella typhimurium [4]) | half-life at 1 µM [5] [min] | half-life [6] [min] | fold change (FC) (Salmonella typhimurium [7]) | Activity (Salmonella typhimurium [8]) | Activity (Salmonella typhimurium [9]) | Activity (Salmonella typhimurium [10]) | IC50 (Cytochrome P450 1A2) [µM] | Activity (Salmonella typhimurium [11]) | Activity (Salmonella typhimurium [12]) | Activity (Salmonella typhimurium [13]) |
| --- | --- | --- | --- | --- | --- | --- | --- | --- | --- | --- | --- | --- | --- | --- | --- |
| Clc1cccc(COc2cncc(N3CCNCC3)n2)c1 | > 50 | 3 | > 90 | 8 | 3 | 4 | 40 | – | – | – | – | – | – | – | – |
| C[C@H](Cc1cccc(F)c1)Oc1nc(N2CCNC[C@H]2C)ncc1F | 4.9 | – | > 90 | 20 | – | 13 | 40 | 1.34 | Non-toxic | Non-toxic | Non-toxic | 0.4 | Non-toxic | Non-toxic | Non-toxic |
